The record followed here is paper PMC6039432, “A small-molecule inhibitor of SOD1-Derlin-1 interaction ameliorates pathology in an ALS mouse model” (Nature Communications, 2018).

Experiment [1] has as its target T1, SOD1-Derlin-1 complex (Flag-SOD1 / Derlin-1-HA) (Homo sapiens, UniProt P00441, G94A).
T1 construct: Flag-SOD1 G93A and Derlin-1-HA co-expressed in HEK293A; complex purified on anti-Flag beads for the in vitro assay, or assayed in cells; all tags kept; with Derlin-1
Nature of the experiment: in vitro co-immunoprecipitation of purified complex, immunoblot. The format is biochemical. Background: A western blot detects proteins with antibodies after separation by electrophoresis.

Experiment [2] has as its target T2, SOD1 (GST-SOD1 / Flag-SOD1; WT or G93A) (Homo sapiens, UniProt P00441, G94A).
T2 construct: full length; GST fusion from pGEX-6P-1 in E. coli BL21, eluted with glutathione (tag apparently kept), loaded with CuSO4 and ZnCl2 (described for activity assay); Flag-tagged in HEK293A for pull-down
The experiment can be described thus: fluorescence polarization (intrinsic fluorescence of compound). Format: binding. On the technique in general: Fluorescence polarisation rises when a labelled molecule tumbles more slowly, as on binding a larger partner.

What is called IC50 is the concentration that gives 50% inhibition. The low end stands for greater potency in that assay, the high end for weaker potency in that assay. By Kd is commonly meant the free concentration of one partner at which half of the binding sites on the other are occupied at equilibrium, for simple one-to-one binding. The low end stands for a tighter complex, the high end for a looser complex.

T1 sequence (P00441 2-154 G94A): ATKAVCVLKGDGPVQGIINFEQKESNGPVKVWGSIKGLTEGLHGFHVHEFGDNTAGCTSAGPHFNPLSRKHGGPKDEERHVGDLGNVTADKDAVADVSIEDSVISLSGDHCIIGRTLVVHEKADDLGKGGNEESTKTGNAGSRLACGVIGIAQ
T1 sequence (Q9BUN8 2-251 partner): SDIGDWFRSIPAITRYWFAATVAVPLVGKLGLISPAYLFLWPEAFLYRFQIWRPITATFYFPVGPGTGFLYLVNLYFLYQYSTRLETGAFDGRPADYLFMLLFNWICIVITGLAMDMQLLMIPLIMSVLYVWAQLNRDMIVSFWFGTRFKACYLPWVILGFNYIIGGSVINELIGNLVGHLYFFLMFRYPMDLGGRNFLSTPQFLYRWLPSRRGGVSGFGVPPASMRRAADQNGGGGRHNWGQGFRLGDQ
T2 sequence (P00441 2-154 G94A): as the sequence (P00441 2-154 G94A) above

`Nc1c(C(=O)Nc2ccc3c(c2)OCO3)sc2nc(-c3cccnc3)ccc12` [#56]: the midpoint of inhibition in experiment [1], the IC50, lay at 23.3 µM.
On the same count and under the same terms, to `Nc1c(C(=O)Nc2ccc(Cl)cc2Cl)sc2nc(-c3cccnc3)ccc12` [#56-26] belongs 6.2 µM.
The molecule `Nc1c(C(=O)Nc2ccc(Br)cc2Br)sc2nc(-c3cccnc3)ccc12` [#56-20] registered an IC50 in experiment [1] of 7.11 µM. This molecule also returned a Kd in experiment [2] of 81.1 µM.
